# Test results as given in PubChem BioAssay (NCI).
#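 Here, GI50 denotes the concentration required for 50% inhibition of growth. TGI marks complete inhibition of growth.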
# Experiments:
# Test in all cases: NCI anticancer screen, dose series, 384-well format
# 786-0 renal = system: 786-0 renal
# A498 renal = system: A498 renal
# A549 NSCLC = system: A549 NSCLC
# ACHN renal = system: ACHN renal
# BT-549 breast = system: BT-549 breast
# CAKI-1 renal = system: CAKI-1 renal
# CCRF-CEM leukemia = system: CCRF-CEM leukemia
# COLO 205 colon = system: COLO 205 colon
# DU-145 prostate = system: DU-145 prostate
# EKVX NSCLC = system: EKVX NSCLC
# HCC-2998 colon = system: HCC-2998 colon
# HCT-116 colon = system: HCT-116 colon
# HCT-15 colon = system: HCT-15 colon
# HL-60(TB) leukemia = system: HL-60(TB) leukemia
# HOP-62 NSCLC = system: HOP-62 NSCLC
# HOP-92 NSCLC = system: HOP-92 NSCLC
# HT29 colon = system: HT29 colon
# IGROV1 ovarian = system: IGROV1 ovarian
# K-562 leukemia = system: K-562 leukemia
# KM12 colon = system: KM12 colon
# LOX IMVI melanoma = system: LOX IMVI melanoma
# M14 melanoma = system: M14 melanoma
# MALME-3M melanoma = system: MALME-3M melanoma
# MCF7 breast = system: MCF7 breast
# MDA-MB-231 breast = system: MDA-MB-231 breast
# MDA-MB-435 melanoma = system: MDA-MB-435 melanoma
# MDA-MB-468 breast = system: MDA-MB-468 breast
# MOLT-4 leukemia = system: MOLT-4 leukemia
# NCI-H226 lung = system: NCI-H226 lung
# NCI-H23 lung = system: NCI-H23 lung
# NCI-H322M lung = system: NCI-H322M lung
# NCI-H460 NSCLC = system: NCI-H460 NSCLC
# NCI-H522 lung = system: NCI-H522 lung
# NCI/ADR-RES ovarian = system: NCI/ADR-RES ovarian
# OVCAR-3 ovarian = system: OVCAR-3 ovarian
# OVCAR-4 ovarian = system: OVCAR-4 ovarian
# OVCAR-5 ovarian = system: OVCAR-5 ovarian
# OVCAR-8 ovarian = system: OVCAR-8 ovarian
# PC-3 prostate = system: PC-3 prostate
# RPMI-8226 leukemia = system: RPMI-8226 leukemia
# RXF 393 renal = system: RXF 393 renal
# SF-268 CNS = system: SF-268 CNS
# SF-295 CNS = system: SF-295 CNS
# SF-539 CNS = system: SF-539 CNS
# SK-MEL-2 melanoma = system: SK-MEL-2 melanoma
# SK-MEL-28 melanoma = system: SK-MEL-28 melanoma
# SK-MEL-5 melanoma = system: SK-MEL-5 melanoma
# SK-OV-3 ovarian = system: SK-OV-3 ovarian
# SN12C renal = system: SN12C renal
# SNB-19 CNS = system: SNB-19 CNS
# SNB-75 CNS = system: SNB-75 CNS
# SR leukemia = system: SR leukemia
# SW-620 colon = system: SW-620 colon
# T-47D breast = system: T-47D breast
# TK-10 renal = system: TK-10 renal
# U251 glioblastoma = system: U251 glioblastoma
# UACC-257 melanoma = system: UACC-257 melanoma
# UACC-62 melanoma = system: UACC-62 melanoma
# UO-31 renal = system: UO-31 renal
structure (smiles),measurement,setting,value
CO[C@H]1/C=C/C[C@H](C)[C@@H](C)S(=O)(=O)NC(=O)c2ccc3c(c2)N(C[C@@H]2CC[C@H]21)C[C@@]1(CCCc2cc(Cl)ccc21)CO3,GI50,786-0 renal,4.4 µM
same,TGI,786-0 renal,15.8 µM
same,GI50,A498 renal,3.29 µM
same,TGI,A498 renal,12.5 µM
same,GI50,A549 NSCLC,3.37 µM
same,TGI,A549 NSCLC,11.1 µM
same,GI50,ACHN renal,4.5 µM
same,TGI,ACHN renal,14.7 µM
same,GI50,BT-549 breast,1.65 µM
same,TGI,BT-549 breast,3.33 µM
same,GI50,CAKI-1 renal,11.3 µM
same,TGI,CAKI-1 renal,23.5 µM
same,GI50,CCRF-CEM leukemia,0.468 µM
same,TGI,CCRF-CEM leukemia,1.11 µM
same,GI50,COLO 205 colon,4.06 µM
same,TGI,COLO 205 colon,11.3 µM
same,GI50,DU-145 prostate,3.87 µM
same,TGI,DU-145 prostate,13.1 µM
same,GI50,EKVX NSCLC,1.98 µM
same,TGI,EKVX NSCLC,7.23 µM
same,GI50,HCC-2998 colon,1.62 µM
same,TGI,HCC-2998 colon,3.84 µM
same,GI50,HCT-116 colon,2.93 µM
same,TGI,HCT-116 colon,8.98 µM
same,GI50,HCT-15 colon,3.39 µM
same,TGI,HCT-15 colon,10.6 µM
same,GI50,HL-60(TB) leukemia,0.021 µM
same,TGI,HL-60(TB) leukemia,0.0423 µM
same,GI50,HOP-62 NSCLC,2.61 µM
same,TGI,HOP-62 NSCLC,6.27 µM
same,GI50,HOP-92 NSCLC,2.13 µM
same,TGI,HOP-92 NSCLC,5.71 µM
same,GI50,HT29 colon,3.59 µM
same,TGI,HT29 colon,12.4 µM
same,GI50,IGROV1 ovarian,3.71 µM
same,TGI,IGROV1 ovarian,13.4 µM
same,GI50,K-562 leukemia,2 µM
same,TGI,K-562 leukemia,5.52 µM
same,GI50,KM12 colon,3.97 µM
same,TGI,KM12 colon,13.5 µM
same,GI50,LOX IMVI melanoma,2.29 µM
same,TGI,LOX IMVI melanoma,4.18 µM
same,GI50,M14 melanoma,2.07 µM
same,TGI,M14 melanoma,4.4 µM
same,GI50,MALME-3M melanoma,2.83 µM
same,TGI,MALME-3M melanoma,7.6 µM
same,GI50,MCF7 breast,1.31 µM
same,TGI,MCF7 breast,4 µM
same,GI50,MDA-MB-231 breast,3.64 µM
same,TGI,MDA-MB-231 breast,9.55 µM
same,GI50,MDA-MB-435 melanoma,1.98 µM
same,TGI,MDA-MB-435 melanoma,4.87 µM
same,GI50,MDA-MB-468 breast,0.339 µM
same,TGI,MDA-MB-468 breast,1.07 µM
same,GI50,MOLT-4 leukemia,0.263 µM
same,TGI,MOLT-4 leukemia,0.794 µM
same,GI50,NCI-H226 lung,3.1 µM
same,TGI,NCI-H226 lung,9.05 µM
same,GI50,NCI-H23 lung,0.758 µM
same,TGI,NCI-H23 lung,2.2 µM
same,GI50,NCI-H322M lung,6.3 µM
same,TGI,NCI-H322M lung,18.4 µM
same,GI50,NCI-H460 NSCLC,1.78 µM
same,TGI,NCI-H460 NSCLC,3.44 µM
same,GI50,NCI-H522 lung,0.95 µM
same,TGI,NCI-H522 lung,2.27 µM
same,GI50,NCI/ADR-RES ovarian,1.74 µM
same,TGI,NCI/ADR-RES ovarian,3.64 µM
same,GI50,OVCAR-3 ovarian,1.71 µM
same,TGI,OVCAR-3 ovarian,3.22 µM
same,GI50,OVCAR-4 ovarian,1.33 µM
same,TGI,OVCAR-4 ovarian,3.39 µM
same,GI50,OVCAR-5 ovarian,8.16 µM
same,TGI,OVCAR-5 ovarian,20.1 µM
same,GI50,OVCAR-8 ovarian,2.81 µM
same,TGI,OVCAR-8 ovarian,7.42 µM
same,GI50,PC-3 prostate,3.93 µM
same,TGI,PC-3 prostate,14 µM
same,GI50,RPMI-8226 leukemia,0.0172 µM
same,TGI,RPMI-8226 leukemia,0.0405 µM
same,GI50,RXF 393 renal,0.689 µM
same,TGI,RXF 393 renal,2.35 µM
same,GI50,SF-268 CNS,2.45 µM
same,TGI,SF-268 CNS,7.41 µM
same,GI50,SF-295 CNS,1.8 µM
same,TGI,SF-295 CNS,3.72 µM
same,GI50,SF-539 CNS,1.75 µM
same,TGI,SF-539 CNS,3.42 µM
same,GI50,SK-MEL-2 melanoma,0.211 µM
same,TGI,SK-MEL-2 melanoma,0.677 µM
same,GI50,SK-MEL-28 melanoma,2.67 µM
same,TGI,SK-MEL-28 melanoma,6.64 µM
same,GI50,SK-MEL-5 melanoma,1.66 µM
same,TGI,SK-MEL-5 melanoma,3.07 µM
same,GI50,SK-OV-3 ovarian,4.24 µM
same,TGI,SK-OV-3 ovarian,13.1 µM
same,GI50,SN12C renal,2.92 µM
same,TGI,SN12C renal,7.99 µM
same,GI50,SNB-19 CNS,3.81 µM
same,TGI,SNB-19 CNS,11.9 µM
same,GI50,SNB-75 CNS,3.6 µM
same,TGI,SNB-75 CNS,9.04 µM
same,GI50,SR leukemia,0.0287 µM
same,TGI,SR leukemia,0.173 µM
same,GI50,SW-620 colon,2.12 µM
same,TGI,SW-620 colon,4.77 µM
same,GI50,T-47D breast,2.79 µM
same,TGI,T-47D breast,11.1 µM
same,GI50,TK-10 renal,4.88 µM
same,TGI,TK-10 renal,15.7 µM
same,GI50,U251 glioblastoma,3.2 µM
same,TGI,U251 glioblastoma,9.92 µM
same,GI50,UACC-257 melanoma,2.95 µM
same,TGI,UACC-257 melanoma,9.81 µM
same,GI50,UACC-62 melanoma,0.284 µM
same,TGI,UACC-62 melanoma,0.762 µM
same,GI50,UO-31 renal,6.3 µM
same,TGI,UO-31 renal,18.2 µM
